# Assay results published in patent US12630829B2, “Gene encoding cytochrome P450 and use thereof” (KUMIAI CHEMICAL INDUSTRY CO., LTD., priority 2020, dated 2026).
# “Also recorded” adds a separate entry of the source.
# Assays:
# [1] = test system: AK454412 (wheat-derived P450) co-expressed with TaCPR; experiment: In vitro metabolism test using co-expression crude enzyme of AK454412 and TaCPR (LC/MS); type: in vitro ADME; details: 10 μM fenquinotrione, 1 mg crude enzyme, 1 mM β-NADPH, 30° C., 1 hour
# Procedure: A single colony of the recombinant E. coli into which each of the above-described two expression constructs had been introduced was inoculated in 3 ml of LB liquid medium, followed by culturing at 37° C. and 200 rpm overnight. 2.5 mL of the resultant culture fluid was added to 250 mL of TB medium (containing 100 ppm carbenicillin and 50 ppm chloramphenicol) held in a 1 L Erlenmeyer flask, followed by culturing at 37° C. and 200 rpm until an OD600 of about 0.5 to 0.6 was obtained. After the resultant flask was cooled with ice, IPTG and aminolaevulinic acid were added thereto to final concentrations of 1 mM and 0.5 mM, respectively, followed by culturing at 20° C. and 110 rpm. 22 hours after the IPTG induction, the resultant culture fluid was centrifuged (4° C., 15,000 rpm, 1 min). A bacterial cell in the obtained 500 mL of culture fluid was suspended in 35 mL of P450 Buffer [50 mM potassium phosphate buffer (pH 7.3), 20% glycerol, 1 mM EDTA, and 1 mM DTT] to be sonicated, followed by centrifugation at 4° C. and at 6,000×g for 10 minutes. The supernatant was centrifuged at 4° C. and at 100,000×g for 1 hour, and a solution obtained by adding P450 Buffer by 1 mL to the obtained precipitate and homogenizing the resultant with a Teflon homogenizer was used as a co-expression crude enzyme solution for AK454412 and TaCPR. […]
# [2] = test system: KJ541960 (wheat-derived P450) co-expressed with TaCPR; experiment: In vitro drug metabolism test of KJ541960 protein against fenquinotrione; type: in vitro ADME; details: test method and conditions of Example 1; KJ541960 reaction plot
# Procedure: It was verified by in vitro metabolism test whether or not a novel wheat-derived P450 of AK454412 is involved in herbicide metabolism. As a compound having high safety against wheat, fenquinotrione was used. […] A solution after completing the enzymatic reaction was centrifuged at 15,000 rpm for 1 minute, and the obtained supernatant was filtered through a 0.45 μm filter and then tested by LC/MS. LC/MS conditions were as follows:
# Therefore, synthesis of an artificial gene of the KJ541960 gene was requested of Eurofins Genomics K.K. Here, NdeI and EcoRI sites were respectively added to the 5′ and 3′ terminals of the CDS sequence of the gene. A DNA fragment of the KJ541960 gene was cleaved through NdeI/EcoRI treatment from the synthesized pEX-A2J2-KJ541960 plasmid, and was linked to pET-22b(+) vector, similarly having been subjected to NdeI/EcoRI treatment, with Ligation-Convenience Kit, and thus pET-22b-KJ541960 was produced (FIG. 13). […]
# It is noted that the KJ541960 gene, synthesized as the artificial gene, was set to encode an amino acid sequence, in which a membrane anchoring region of the 35 N-terminal amino acid residues was removed, and the 6β sequence (MAKKTSS) was added as the same conditions as in the AK454412 gene. […] Besides, the intensity of the peak of the detected demethylated product was substantially the same in both the reaction plots. […]
smiles,measurement,setting,value
COc1ccc(-n2c(=O)c(C(=O)C3C(=O)CCCC3=O)nc3c(Cl)cccc32)cc1 [fenquinotrione],"metabolic degradation of fenquinotrione (production of the demethylated product, LC/MS)",[1],"metabolically degrades fenquinotrione to the demethylated product; also recorded: a parent peak of fenquinotrione was reduced, and a peak of the demethylated product appeared"
same,metabolism of fenquinotrione (production of demethylated product as index),[2],"a parent peak of fenquinotrione was reduced, and a peak of the demethylated product appeared"
